Series [1] in a line: Pharmacokinetic (PK) studies, monkey oral PK. Format: in vivo, Cynomolgus monkeys. The settings on record: for bioavailability / Tmax / AUC(0-t) / Cmax: plasma, Cynomolgus monkey; for bioavailability: oral dose 2 mg/kg (CE-1: 1 mg/kg); for Tmax / AUC(0-t) / Cmax: single oral dose 2 mg/kg (CE-1: 1 mg/kg); for AUC(0-t): read-out: AUC0-24 (Arbitrary units); for Cmax: read-out: Cmax (Arbitrary unit). As to the method: Examples 54 and 253 were tested along with comparative examples CE-1 and CE-2.
Compounds CE-2, Example 54 or Example 253 were combined with a mixture of 10% NMP (v:v) and 90% PEG300 (v:v), and the mixture was stirred until a homogeneous solution was obtained (1 mg/mL final concentration of test article).
Compound CE-1 was combined with a mixture of 15% 2-hydroxypropyl-o-cyclodextrin (w:v) and 85% Mili-Q water (v:v), and the mixture was stirred until a homogeneous solution was obtained (0.5 mg/mL final concentration of test article).
Young adult non-naive Cynomolgus monkeys with weight about 2.5-5 kg (n=1-3/test article/route) were fasted overnight and then dosed with either CE-1 (at 1 mg test article per kg animal weight), CE-2 (at 2 mg test article per kg animal weight), Example 54 (at 2 mg test article per kg animal weight), or Example 253 (at 2 mg test article per kg animal weight). Food was supplied approximately 4 hours post dose and animals were provided with free access to water all the time. Animals were restrained at designated time points for blood sampling. Approximately 500 μL of blood samples was taken via cephalic or saphenous vein into EDTA-K2 tubes. For oral administration (PO): blood samples were generally collected pre-dose, and at 15 min, 30 min, 1 hr, 2 hr, 4 hr, 8 hr, 12 hr, and 24 hr time points after dosing. Blood was maintained on wet ice, in chilled cryoracks, or at approximately 5° C. prior to centrifugation to obtain plasma. Centrifugation was conducted within 1 hour of collection. Plasma (approximately 200 μL) was placed into a micronic tubes containing 4 μL of formic acid (the final concentration of formic acid in plasma was approximately 2%) and samples were vortex mixed. Samples were maintained on dry ice prior to storage at approximately −70° C.
LC-MS/MS assays were utilized to quantify the concentration of the test articles in plasma as follows.
50 μL plasma sample was mixed with 350 μL of ACN combined with an internal standard. The mixture was then vortexed for about 1-5 min, and centrifuged at about 4,000-5,800 rpm for about […]. An aliquot of 1 μL supernatant was used for LC-MS/MS analysis.
MS conditions: A Sciex API 6500 equipped with electrospray ionization in the positive ion selected reaction monitoring mode was used for detection.
HPLC conditions • Mobile Phase A: H2O-0.1% Formic Acid • Mobile Phase B: ACN-0.1% Formic Acid
• Column: Phenomenex Kinetex XBC18 (2.1×50 mm, 2.6 μm) with a flow rate of 1.20 mL/min • Column temperature: 60° C. • Retention time: approximately between 0.85 to 1.05 • min
Pharmacokinetics parameters, including area under the curve (AUC0-24), maximum plasma concentration (Cmax), time to reach maximum plasma concentration (Tma), oral bioavailability (F %), etc., were calculated using Dotmatics software in non-compartmental model.

A further series deals with T1, GLP-1R (Homo sapiens, UniProt P43220).
T1 construct: host or cells: CHO cells
T1 sequence (P43220 24-463): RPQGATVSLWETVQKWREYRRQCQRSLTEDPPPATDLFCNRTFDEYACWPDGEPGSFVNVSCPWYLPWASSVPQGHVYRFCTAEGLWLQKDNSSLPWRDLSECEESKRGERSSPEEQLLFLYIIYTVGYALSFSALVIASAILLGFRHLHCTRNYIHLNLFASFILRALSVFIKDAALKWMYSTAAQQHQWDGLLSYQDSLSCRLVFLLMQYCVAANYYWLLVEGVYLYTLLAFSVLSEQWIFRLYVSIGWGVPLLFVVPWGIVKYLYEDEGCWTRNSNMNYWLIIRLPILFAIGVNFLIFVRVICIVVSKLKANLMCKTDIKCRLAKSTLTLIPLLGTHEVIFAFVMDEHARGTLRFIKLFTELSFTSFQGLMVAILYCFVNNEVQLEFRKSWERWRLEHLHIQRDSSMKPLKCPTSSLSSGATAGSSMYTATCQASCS
Briefly: GLP-1R activation cAMP assay (Assay 1 or Assay 2). The class given is cell-based. The settings on record: cAMP increase in CHO cells stably expressing GLP-1R; compounds run on one of the two cAMP assays. Put shortly:
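CHO cells stably expressing human GLP-1R were incubated 1 h in HBSS/20 mM HEPES/0.1% BSA, then exposed to 10-point agonist dilutions for 30 min at 37 °C. cAMP increase was measured with an HTRF Gs dynamic kit; EC50 from sigmoidal fit of response versus log concentration.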

`N#Cc1ccc(COc2cccc(C3CCN(Cc4nc5ccc(C(=O)O)cc5n4C[C@@H]4CCO4)CC3)n2)c(F)c1` [CE-1, (S)-2-((4-(6-((4-cyano-2-fluorobenzyl)oxy)pyridin-2-yl)piperidin-1-yl)methyl)-1-(oxetan-2-ylmethyl)-1H-benzo[d]imidazole-6-carboxylic acid, reference compound]: in series [1] (single oral dose of 1 mg/kg, monkey, FIG. 1), the “plasma exposures after the 12 h period” value is given as “below the detection limit”.

Turning to `N#Cc1ccc(COc2cccc(C3CCN(Cc4nc5ccc(C(=O)O)cc5n4C[C@@H]4CCO4)CC3)n2)c(F)c1` [Compound CE-1], the bioavailability in series [1] was determined as 2.5 ± 0.2%. Still for that read-out and setting: to `N#Cc1ccc(COc2cccc(-c3cc(F)c(Cc4nc5ccc(C(=O)O)cc5n4C[C@@H]4CCO4)cc3F)n2)c(F)c1` [Compound CE-2] belongs 27.4 ± 12.9%.

Compound `O=C(O)c1ccc2nc(Cc3cc(F)c(-c4cccc(OCc5ncc(C(F)(F)F)s5)n4)cc3F)n(C[C@@H]3CCO3)c2c1` [Example 54, (S)-2-(2,5-difluoro-4-(6-((5-(trifluoromethyl)thiazol-2-yl)methoxy)pyridin-2-yl)benzyl)-1-(oxetan-2-ylmethyl)-1H-benzo[d]imidazole-6-carboxylic acid] returned an EC50 at GLP-1R of 0.09 nM. Besides, in series [1], the Tmax was determined as 4.7 ± 1.2 h, the AUC(0-t) was 14.2 ± 7.69 µM·h, the Cmax worked out at 1270 ± 628 nM and the bioavailability was determined as 89 ± 33%. Take `O=C(O)c1cc(F)c2nc(Cc3cc(F)c(-c4cccc(OCc5ncc(C(F)(F)F)s5)n4)cc3F)n(C[C@@H]3CCO3)c2c1` [Example 253, (S)-2-(2,5-difluoro-4-(6-((5-(trifluoromethyl)thiazol-2-yl)methoxy)pyridin-2-yl)benzyl)-4-fluoro-1-(oxetan-2-ylmethyl)-1H-benzo[d]imidazole-6-carboxylic acid]: in series [1], the Tmax stood at 5.3 ± 2.3 h, the AUC(0-t) stood at 6.39 ± 2.36 µM·h, the Cmax was 582 ± 296 nM and the bioavailability was 55.7 ± 20.6%. Regarding `O=C(O)c1cc(F)c2nc(Cc3c(F)cc(-c4ccc(F)c(OCc5ncc(C(F)(F)F)s5)n4)c(F)c3F)n(C[C@@H]3CCO3)c2c1` [Example 447, (S)-4-fluoro-1-(oxetan-2-ylmethyl)-2-(2,3,6-trifluoro-4-(5-fluoro-6-((5-(trifluoromethyl)thiazol-2-yl)methoxy)pyridin-2-yl)benzyl)-1H-benzo[d]imidazole-6-carboxylic acid], the midpoint of the response at GLP-1R, the EC50, lay at 0.02 nM. Same read-out and setting: to `O=C(O)c1ccc2nc(Cc3c(F)cc(-c4cccc(OCc5ncc(C(F)(F)F)s5)n4)c(F)c3F)n(C[C@@H]3CCO3)c2c1` [Example 448, (S)-1-(oxetan-2-ylmethyl)-2-(2,3,6-trifluoro-4-(6-((5-(trifluoromethyl)thiazol-2-yl)methoxy)pyridin-2-yl)benzyl)-1H-benzo[d]imidazole-6-carboxylic acid] belongs 0.118 nM; to `O=C(O)c1cc(F)c2nc(Cc3c(F)cc(-c4cccc(OCc5ncc(C(F)(F)F)s5)n4)c(F)c3F)n(C[C@@H]3CCO3)c2c1` [Example 449, (S)-4-fluoro-1-(oxetan-2-ylmethyl)-2-(2,3,6-trifluoro-4-(6-((5-(trifluoromethyl)thiazol-2-yl)methoxy)pyridin-2-yl)benzyl)-1H-benzo[d]imidazole-6-carboxylic acid], 0.081 nM.

In the case of `CNC(=O)c1cc(Cl)c(COc2cccc(-c3cc(F)c(Cc4nc5ccc(C(=O)O)cc5n4CC4(CF)CC4)c(F)c3F)n2)cn1` [Example 450, 2-(4-(6-((4-chloro-6-(methylcarbamoyl)pyridin-3-yl)methoxy)pyridin-2-yl)-2,3,6-trifluorobenzyl)-1-((1-(fluoromethyl)cyclopropyl)methyl)-1H-benzo[d]imidazole-6-carboxylic acid], on GLP-1R, the EC50 was 0.05 nM. Still for that read-out and setting: to `CNC(=O)c1cc(Cl)c(COc2cccc(-c3cc(F)c(Cc4nc5ccc(C(=O)O)cc5n4CC4(CF)CC4)c(F)c3F)c2)cn1` [Example 451, 2-((3′-((4-chloro-6-(methylcarbamoyl)pyridin-3-yl)methoxy)-2,3,5-trifluoro-[1,1′-biphenyl]-4-yl)methyl)-1-((1-(fluoromethyl)cyclopropyl)methyl)-1H-benzo[d]imidazole-6-carboxylic acid] belongs 0.611 nM; to “(S)-1-(oxetan-2-ylmethyl)-2-(2,3,6-trifluoro-4-(6-((4-(trifluoromethyl)thiazol-2-yl)methoxy)pyridin-2-yl)benzyl)-1H-benzo[d]imidazole-6-carboxylic acid [Example 376]”, 0.153 nM; to “(S)-2-(4-(6-((5-cyano-3-fluorothiophen-2-yl)methoxy)-5-fluoropyridin-2-yl)-2,5-difluorobenzyl)-4-fluoro-1-(oxetan-2-ylmethyl)-1H-benzo[d]imidazole-6-carboxylic acid [Example 310]”, 0.038 nM.

Source of the values: patent US20250312352A1, “GLP-1R MODULATING COMPOUNDS” (Gilead Sciences, Inc., priority 2021, published 2025).
